Measurements published in US7351800B2, “Stabilized albumin preparations” (Nipro Corporation, priority 2002, dated 2008).

What was measured:
Format in all cases: physicochemical
[1] = target: T1, HSA (Homo sapiens, UniProt P02768); assay: Differential scanning calorimetry (DSC) of HSA solutions: thermal stabilization effect; conditions: 100-μM HSA, 500-μM agent
Experimental: Each of various medical agents was added to 100-μM HSA ( 1/15 mM phosphate buffer, pH 7.4) and then the following medical agents under test were prepared:
The stabilization effect was evaluated in terms of a thermodynamic viewpoint by calculating a thermal transition temperature (Tm) and a change ΔHcal in enthalpy of transition from a differential scanning calorimetry (DSC) measurement on those medical agents under test (1) to (4). If the thermal transition temperature (Tm) increases, from the thermodynamic viewpoint, it means an increase in stability of the medical agents under test. In addition, if the change ΔHcal in enthalpy of transition increases, it means an increase in stability of the medical agents transition under test.
Those values were analyzed by a DSC thermogram of the HSA solution. Differential scanning calorimetry (DSC method)
For the DSC, measurement was made using the MC-2 differential scanning calorimeter manufactured by MicroCal Co., Ltd. The measuring conditions are shown below.
Albumin content: 100 μM Solvent: 1/15 M phosphate buffer (pH 7.4)
Reversibility of thermal denaturation was confirmed by cooling the albumin solution after first measurement and then heating the albumin solution again. […]

[2] = target: T1, HSA; assay: Carbonyl content in HSA after oxidation with AAPH; conditions: oxidation with excess AAPH; compared with medical agent under test without addition
Experimental: An excess amount of an oxidizing agent, 2,2′-azobis-(2-amidinopropane) dihydrochloride (AAPH) was added to HSA to oxidize the HSA. After the oxidation for a predetermined time, the carbonyl content in HSA was determined.

[3] = target: T1, HSA; assay: Aggregate-inhibition effect under heat with medium-chain fatty acids other than sodium caprylate (electrophoresis); conditions: 5-fold concentration (120 μM) of fatty acid added to 24-μM HSA phosphate buffer (67 mM, pH 7.4)
Experimental: The measurement samples used were such that 5-fold concentrations (120 μM) of the respective fatty acids were each added to a 24-μM HSA phosphate buffer (67 mM, pH 7.4).

T1 sequence (P02768 25-609): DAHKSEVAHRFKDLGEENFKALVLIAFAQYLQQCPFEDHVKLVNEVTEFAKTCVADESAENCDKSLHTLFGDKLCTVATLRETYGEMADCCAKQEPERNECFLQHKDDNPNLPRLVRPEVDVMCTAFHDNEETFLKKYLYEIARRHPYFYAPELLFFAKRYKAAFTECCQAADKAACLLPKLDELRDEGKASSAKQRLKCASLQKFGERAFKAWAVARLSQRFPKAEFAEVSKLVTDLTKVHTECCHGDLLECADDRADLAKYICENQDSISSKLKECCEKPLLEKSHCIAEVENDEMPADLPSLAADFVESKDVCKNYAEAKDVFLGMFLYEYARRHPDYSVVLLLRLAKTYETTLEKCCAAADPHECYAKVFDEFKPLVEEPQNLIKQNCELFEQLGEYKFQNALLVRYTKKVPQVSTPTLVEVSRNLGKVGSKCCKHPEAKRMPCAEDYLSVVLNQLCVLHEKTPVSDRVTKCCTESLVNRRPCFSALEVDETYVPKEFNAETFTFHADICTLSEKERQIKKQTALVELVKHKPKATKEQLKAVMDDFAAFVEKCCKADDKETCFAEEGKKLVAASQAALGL

change in Tm compared with HSA solution without added agent (in words) [1]	carbonyl content in HSA (degree of oxidation) [2]	Structure (SMILES)	change in ΔHcal compared with HSA solution without added agent (in words) [1]	aggregate-inhibition effect under heat [3]
slight increase in Tm	significant decrease in carbonyl content	CSCC[C@H](NC(C)=O)C(=O)O [N-acetyl methionine]	increase in change ΔHcal in enthalpy transition	
		CCCCCCC(=O)O [enanthic acid]		slightly observed
		CCCCCC(=O)O [caproic acid]		slightly observed
